Source: patent US20130345306A1, “IDENTIFICATION OF C3 COMPLEMENT MOLECULE AT THE SITE OF INJURY TO BLOOD VESSELS IN THE RETINA OF OXYGEN EXPOSED ANIMALS” (priority 2011, published 2013)
Entries after “also recorded” stand apart in the source; their conditions may differ.

Legend:
[1] = test system: new born mice; test: Murine OIR trial with progressively increased SB290157 dosage, observation for untoward reactions or side effects; format: in vivo, mouse; conditions: i.p. DOL 5; dosage increased from 2.5 to 5, 7.5, 10, 15, 25, 50 mgm/kg; 75% O2 DOL 7-12
Method: Standard O2 exposure 75% DOL 7-12; 3) Euthanasia at DOL17, followed by enucleation, removal of the retina and separation from the retina from underlying Pigment Epithelial layer. Flatmount and stain for vessels with IsoLectin was performed by incubating the preparation with goat AB followed by counter-staining with Rhodamine to bring out the presence of active C3a; 4)Microscopy at 2.5× and 40× for: capillary bed anatomy; presence of “ghost vessels” previously described; presence of cellular debris noted previously thought to be pieces of partially destroyed but not digested cell wall; destruction or absence of neurons and glial in the retina surrounding the Optic Nerve Head(from which major blood vessels exit undamaged at least as can be detected by the oxygen exposure); presence or absence of neovascular tufts (a late complication of oxygen damage). An additional trial with Intravitreal Injection will be performed as this paper is prepared.
MATERIALS & METHOD: Litters of black 6 new born mice were divided in half at birth. At DOL seven, one half of the litter were placed in an oxygen chamber maintained at 75%+/−2% oxygen till DOL 12. The oxygen exposed mice were maintained in room air until DOL 17. The control mice were raised in room air until DOL 17 when both halves were euthanized at DOL17. Eyes were enucleated and fixed in 4% paraformaldehyde at 4° C. overnight. […]

[2] = test system: murine oxygen-induced retinopathy (OIR); test: Murine OIR, SB290157 intraperitoneal just prior to 75% oxygen, preservation of capillary bed; format: in vivo, mouse; conditions: 2-5 mg/kg i.p. just prior to 75% oxygen DOL 7-12; vs sham saline injected oxygen-exposed litter mates
Method: Murine Model of Oxygen-Induced Retinopathy (OIR): In this regard we reported the role of active C3a in the OIR (15). C57BL/6J mice were obtained from Jackson Laboratories. After birth the litter of mice were nursed by their dam in a room air environment from day of life (DOL) 0 to DOL 6. On DOL 7 the litter were separated in half. One half were placed with their nursing dam in a custom made incubator from DOL 7 through DOL 12 ([…]) with the oxygen concentration maintained at 75% measured twice daily. The other half of the litter were raised in room air as controls. Dams were replaced every 24 hours in the incubator. […]
After a rinse, the retinas were permeabilized with 0.1% Triton X100 and stained with Alexa Fluor 488-conjugated isolectin GS-IB4, followed by blocking with 5% donkey serum. […] Images were obtained digitally with a fluorescence microscope and a digital camera. […]
For a given control half litter the areal extent of total destruction can be estimated, in a non-limiting example from the area extending from optic nerve to mid periphery of the retina. For the SB290157 treated animals the measured area of destruction can be estimated, in a non-limiting example from the area extending from optic nerve to mid periphery of the retina. […] The results of this experiment are measured in prevention of capillary loss. […]

[3] = test system: airway neutrophilia; conditions: in vivo; cited from earlier work
[4] = test system: rodent C3aR; conditions: cited from earlier work
[5] = target: human C3aR (Homo sapiens, UniProt Q16581); conditions: cited from earlier work
Sequence of human C3aR (Q16581 whole entry): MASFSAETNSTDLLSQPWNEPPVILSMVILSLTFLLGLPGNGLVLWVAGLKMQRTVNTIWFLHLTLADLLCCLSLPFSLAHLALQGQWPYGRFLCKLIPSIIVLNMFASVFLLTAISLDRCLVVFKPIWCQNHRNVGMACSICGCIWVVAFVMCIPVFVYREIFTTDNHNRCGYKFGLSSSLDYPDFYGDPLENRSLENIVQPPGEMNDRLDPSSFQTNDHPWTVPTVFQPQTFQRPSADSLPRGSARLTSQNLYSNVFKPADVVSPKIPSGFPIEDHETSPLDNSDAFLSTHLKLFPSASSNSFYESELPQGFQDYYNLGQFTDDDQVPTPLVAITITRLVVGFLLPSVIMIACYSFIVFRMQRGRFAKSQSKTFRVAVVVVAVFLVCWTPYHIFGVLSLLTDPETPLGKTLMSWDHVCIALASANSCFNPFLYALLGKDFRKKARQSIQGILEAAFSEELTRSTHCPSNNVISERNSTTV

[6] = test system: murine oxygen-induced retinopathy (OIR); test: Murine oxygen-induced retinopathy (OIR), SB290157 injected intraperitoneally on DOL 5, retinal vasculature pattern on DOL 17; format: in vivo; conditions: 1 mg/kg i.p. DOL 5
Method: litters of new born mice were divided into 4 groups. On Day of Life (DOL) 5, SB290157 1 mg per kilogram body weight is injected intraperitoneally into mice in Group 1 and Group 3; same volume solvent without SB290157 is injected intraperitoneally into mice in Group 2 and Group 4. Mice from group 1 and 2 are raised in room air all the time, but mice from group 3 and 4 are raised in room air till DOL 7 when they are transfer into 75% oxygen chamber and on DOL 12 they are returned into room air. On DOL 17, eyes are enucleated and retinas dissected after euthanasia. Retinas are then stained with Alexa Fluor 488 conjugated isolectin GS-IB4 and mounted on slide for vasculature pattern study.

[7] = 75% oxygen DOL 7-12, DOL 17, vs solvent-injected oxygen-exposed group 4

In the case of `NC(N)=NCCC[C@H](NC(=O)COCC(c1ccccc1)c1ccccc1)C(=O)O` [SB290157], the “untoward reactions or side effects” value [1] is listed as “None were observed”, the “preservation of capillary bed” value [2] is listed as “prevents the destruction of capillary bed; also recorded: preservation of capillary bed” and the “effect in airway neutrophilia” value [3] is listed as “beneficial effects”. For the same molecule, the C3a receptor blockade [4] was “blocking”, the C3a receptor blockade [5] was “blocking” and the “effect on murine OIR (conclusion)” value ([6]; 75% oxygen DOL 7-12) was “can attenuate murine OIR”. For the same molecule, the “capillary damage in retinal whole mounts” value [6, 7] was “attenuated the damage to the capillary bed; also recorded: significantly less capillary damage”, the neovascularization tufts [6, 7] was “few to no vascular tufts; also recorded: less neovascularization tufts” and the “retinal vasculature / toxicity to forming vascular tissue in room air raised mice” value ([6]; room air, DOL 17, vs solvent group 2) was “No evidence of toxicity to forming vascular tissue; also recorded: normal developing vasculature patterns without significant difference”.
